The source of these data is ChEMBL document CHEMBL3991601, “The target landscape of clinical kinase drugs” (Science, 2017).

What is called Kd is the free concentration of one partner at which half of the binding sites on the other are occupied at equilibrium, for simple one-to-one binding.

The structures appear in SMILES notation. Active and inactive are the calls of the source. Rule as the data show it: actives have a measured Kd and inactives only a lower limit.

For assay [1], the target named is T1, Mitogen-activated protein kinase kinase kinase 2 (Homo sapiens, UniProt Q9Y2U5).
T1 sequence (Q9Y2U5 whole entry): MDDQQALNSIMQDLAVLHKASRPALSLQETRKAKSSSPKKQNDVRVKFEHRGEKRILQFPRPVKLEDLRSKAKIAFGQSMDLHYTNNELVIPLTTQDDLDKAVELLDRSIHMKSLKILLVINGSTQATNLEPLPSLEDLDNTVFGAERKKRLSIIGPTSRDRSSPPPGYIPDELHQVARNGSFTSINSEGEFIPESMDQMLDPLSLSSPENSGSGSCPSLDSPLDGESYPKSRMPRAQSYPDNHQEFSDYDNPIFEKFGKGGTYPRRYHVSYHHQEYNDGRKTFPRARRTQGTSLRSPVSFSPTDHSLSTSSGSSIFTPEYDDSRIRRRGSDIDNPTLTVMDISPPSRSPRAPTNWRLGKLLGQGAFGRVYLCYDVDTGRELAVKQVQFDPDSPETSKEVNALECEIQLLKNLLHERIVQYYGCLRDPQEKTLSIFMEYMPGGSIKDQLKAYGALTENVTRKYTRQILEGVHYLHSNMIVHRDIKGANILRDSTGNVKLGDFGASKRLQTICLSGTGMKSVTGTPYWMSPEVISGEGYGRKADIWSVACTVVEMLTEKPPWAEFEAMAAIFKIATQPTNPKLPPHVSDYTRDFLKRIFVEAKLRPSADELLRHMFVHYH

In assay [2] the target is T2, Serine/threonine-protein kinase ULK1 (Homo sapiens, UniProt O75385).
T2 sequence (O75385 whole entry): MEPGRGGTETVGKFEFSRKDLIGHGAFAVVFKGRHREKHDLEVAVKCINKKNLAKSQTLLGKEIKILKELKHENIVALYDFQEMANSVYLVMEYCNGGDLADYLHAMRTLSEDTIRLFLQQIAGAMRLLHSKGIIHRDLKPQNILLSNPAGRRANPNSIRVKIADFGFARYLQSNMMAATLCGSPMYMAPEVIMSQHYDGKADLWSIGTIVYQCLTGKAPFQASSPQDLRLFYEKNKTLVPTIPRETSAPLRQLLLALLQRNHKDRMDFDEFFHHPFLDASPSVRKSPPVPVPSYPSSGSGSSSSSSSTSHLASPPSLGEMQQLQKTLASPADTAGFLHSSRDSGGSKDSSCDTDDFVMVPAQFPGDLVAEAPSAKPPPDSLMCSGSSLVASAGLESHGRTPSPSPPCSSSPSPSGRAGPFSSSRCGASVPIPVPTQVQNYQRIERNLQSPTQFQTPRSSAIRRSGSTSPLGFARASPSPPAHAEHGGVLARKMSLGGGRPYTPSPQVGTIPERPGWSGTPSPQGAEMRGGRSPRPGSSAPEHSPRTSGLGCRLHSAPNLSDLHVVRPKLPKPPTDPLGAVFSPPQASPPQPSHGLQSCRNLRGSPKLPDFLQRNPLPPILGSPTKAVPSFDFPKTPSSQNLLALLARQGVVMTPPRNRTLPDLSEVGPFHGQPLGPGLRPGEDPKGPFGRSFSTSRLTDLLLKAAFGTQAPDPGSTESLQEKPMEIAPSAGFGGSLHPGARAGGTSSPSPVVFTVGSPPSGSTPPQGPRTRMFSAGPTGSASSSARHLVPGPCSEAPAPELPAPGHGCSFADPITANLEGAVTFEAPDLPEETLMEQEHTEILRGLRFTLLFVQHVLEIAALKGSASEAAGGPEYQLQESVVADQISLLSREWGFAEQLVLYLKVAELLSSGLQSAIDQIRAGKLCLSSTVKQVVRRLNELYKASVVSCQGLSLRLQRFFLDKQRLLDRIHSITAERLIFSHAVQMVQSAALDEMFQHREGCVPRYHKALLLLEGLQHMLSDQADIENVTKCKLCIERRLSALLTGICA

For assay [3], the target named is T3, Cyclin-G-associated kinase (Homo sapiens, UniProt O14976).
T3 sequence (O14976 whole entry): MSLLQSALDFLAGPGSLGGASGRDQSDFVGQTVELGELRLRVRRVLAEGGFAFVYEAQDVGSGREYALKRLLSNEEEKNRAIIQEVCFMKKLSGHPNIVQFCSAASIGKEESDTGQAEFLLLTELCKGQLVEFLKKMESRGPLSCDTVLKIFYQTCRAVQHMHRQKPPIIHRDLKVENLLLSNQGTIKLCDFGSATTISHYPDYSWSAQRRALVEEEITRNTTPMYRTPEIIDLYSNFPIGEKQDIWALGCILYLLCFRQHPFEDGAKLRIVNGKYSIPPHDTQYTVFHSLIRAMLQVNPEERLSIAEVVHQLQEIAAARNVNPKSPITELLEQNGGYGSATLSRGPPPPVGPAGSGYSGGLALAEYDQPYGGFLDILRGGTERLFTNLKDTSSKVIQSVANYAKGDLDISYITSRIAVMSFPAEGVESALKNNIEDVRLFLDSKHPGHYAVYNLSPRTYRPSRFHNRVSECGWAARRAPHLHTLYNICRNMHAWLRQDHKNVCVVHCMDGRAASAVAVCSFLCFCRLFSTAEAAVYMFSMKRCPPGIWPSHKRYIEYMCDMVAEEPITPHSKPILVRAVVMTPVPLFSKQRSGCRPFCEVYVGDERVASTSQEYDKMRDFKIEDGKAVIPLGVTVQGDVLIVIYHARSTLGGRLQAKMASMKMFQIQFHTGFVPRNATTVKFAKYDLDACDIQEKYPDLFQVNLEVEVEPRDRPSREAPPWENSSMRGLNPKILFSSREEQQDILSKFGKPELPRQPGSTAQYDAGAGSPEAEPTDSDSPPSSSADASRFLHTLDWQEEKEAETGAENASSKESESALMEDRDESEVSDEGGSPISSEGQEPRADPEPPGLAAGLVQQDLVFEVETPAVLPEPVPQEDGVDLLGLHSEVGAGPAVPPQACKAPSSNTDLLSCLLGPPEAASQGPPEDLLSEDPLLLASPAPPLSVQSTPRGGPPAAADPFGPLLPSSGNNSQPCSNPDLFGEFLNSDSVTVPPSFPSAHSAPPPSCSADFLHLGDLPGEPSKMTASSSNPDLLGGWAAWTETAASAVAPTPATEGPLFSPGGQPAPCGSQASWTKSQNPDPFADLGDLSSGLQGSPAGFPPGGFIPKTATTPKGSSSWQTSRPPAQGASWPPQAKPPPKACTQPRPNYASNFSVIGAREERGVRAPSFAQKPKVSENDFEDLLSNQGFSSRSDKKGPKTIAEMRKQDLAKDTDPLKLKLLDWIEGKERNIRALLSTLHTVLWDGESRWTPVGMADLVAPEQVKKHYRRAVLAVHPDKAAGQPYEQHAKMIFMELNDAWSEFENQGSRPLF

Assay [4] has as its target Aurora kinase B (Homo sapiens, UniProt Q96GD4).
Also: in the data inactive means no Kd found up to 30 µM.

Chain of Aurora kinase B (Q96GD4 whole entry): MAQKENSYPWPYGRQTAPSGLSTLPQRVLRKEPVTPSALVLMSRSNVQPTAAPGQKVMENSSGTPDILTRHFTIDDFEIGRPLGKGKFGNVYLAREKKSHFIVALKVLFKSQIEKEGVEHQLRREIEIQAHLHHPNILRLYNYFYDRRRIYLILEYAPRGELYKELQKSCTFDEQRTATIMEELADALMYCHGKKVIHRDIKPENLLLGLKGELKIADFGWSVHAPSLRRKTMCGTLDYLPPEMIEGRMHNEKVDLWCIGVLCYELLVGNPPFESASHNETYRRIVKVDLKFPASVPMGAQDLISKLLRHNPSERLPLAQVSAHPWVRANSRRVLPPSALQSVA

Consider `CC[C@@H]1C(=O)N(C)c2cnc(Nc3ccc(C(=O)N[C@H]4CC[C@H](N5CCN(CC6CC6)CC5)CC4)cc3OC)nc2N1C(C)C` [VOLASERTIB], for which the Kd in assay [1], in assay [2], in assay [3] and in assay [4] was > 30 µM (inactive) in each case.

`Cc1ccc(S(=O)(=O)Nc2nc3ccccc3nc2Nc2ccc3nsnc3c2)cc1`: the Kd in assay [1], in assay [2], in assay [3] and in assay [4] was > 30 µM (inactive) throughout.

For the molecule `Cn1cc(-c2ccc(F)c(C(F)(F)F)c2)nc1C1CCN(c2ncnc3[nH]ncc23)CC1` [LY-2584702], the Kd in assay [1], in assay [2], in assay [3] and in assay [4] was > 30 µM (inactive) in each case.

With `COc1cc(OC)c(/C=C/S(=O)(=O)Cc2ccc(OC)c(NCC(=O)O)c2)c(OC)c1` [RIGOSERTIB], the Kd in assay [1], in assay [2], in assay [3] and in assay [4] was > 30 µM (inactive) in each case.

For `CCn1c(=O)c(-c2cc[nH]n2)cc2c(C)nc(N)nc21` [VOXTALISIB], the Kd in assay [1], in assay [2], in assay [3] and in assay [4] was > 30 µM (inactive) in each case.

In the case of `OCCn1cc(-c2cnc3nnn(Cc4ccc5ncccc5c4)c3n2)cn1` [PF-04217903], the Kd in assay [1], in assay [2] and in assay [3] was > 30 µM (inactive) each time.

For `CO[C@H]1C[C@@H]2CC[C@@H](C)[C@@](O)(O2)C(=O)C(=O)N2CCCC[C@H]2C(=O)O[C@H]([C@H](C)C[C@@H]2CC[C@@H](OCCO)[C@H](OC)C2)CC(=O)[C@H](C)/C=C(\C)[C@@H](O)[C@@H](OC)C(=O)[C@H](C)C[C@H](C)/C=C/C=C/C=C/1C` [EVEROLIMUS], the Kd in assay [1], in assay [2], in assay [3] and in assay [4] was > 30 µM (inactive) in each case.

Take `CCCS(=O)(=O)Nc1ccc(F)c(C(=O)c2c[nH]c3ncc(-c4ccc(Cl)cc4)cc23)c1F` [VEMURAFENIB]: the Kd in assay [1], in assay [2], in assay [3] and in assay [4] was > 30 µM (inactive) each time.

Turning to `O=C(Nc1ccc(-c2ccnc(Nc3ccc(N4CCOCC4)cc3)n2)cc1)C1CCCN1` (stereo not given) [XL-019], the Kd in assay [1] is > 30 µM (inactive); in assay [2], > 30 µM (inactive); in assay [3], 0.05 µM (active); in assay [4] it was > 30 µM (inactive).

Turning to `Cn1ncc(Cl)c1-c1cc(C(=O)N[C@H](CN)Cc2cccc(F)c2)sc1Cl` [AFURESERTIB], the Kd in assay [1], in assay [3] and in assay [4] was > 30 µM (inactive) throughout.

`CNC(=O)CN1CCC(Oc2cc3c(Nc4cccc(Cl)c4F)ncnc3cc2OC)CC1` [SAPITINIB]: the Kd in assay [1] is > 30 µM (inactive); in assay [2] it was > 30 µM (inactive); in assay [3], 0.176 µM (active); in assay [4], > 30 µM (inactive).

For the molecule `Cc1cc(Nc2cc(N3CCN(C)CC3)nc(/C=C/c3ccccc3)n2)n[nH]1` [ENMD-2076], in assay [3], the Kd is > 30 µM (inactive).

With `CCS(=O)(=O)N1CC(CC#N)(n2cc(-c3ncnc4[nH]ccc34)cn2)C1` [BARICITINIB], the Kd in assay [1] was > 30 µM (inactive); in assay [2], 0.81 µM (active); in assay [4], > 30 µM (inactive).

For `O=C(O)[C@]1(Cc2cccc(Nc3nccs3)n2)CC[C@@H](Oc2cccc(Cl)c2F)CC1` [MK-5108], the Kd in assay [1], in assay [2] and in assay [3] was > 30 µM (inactive) throughout.

Take `C=CC(=O)N1CCC(Oc2cc3c(Nc4ccc(Cl)c(Cl)c4F)ncnc3cc2OC)CC1` [POZIOTINIB]: the Kd in assay [1], in assay [2] and in assay [3] was > 30 µM (inactive) in each case.

In the case of `Nc1nc(N)c2nc(-c3cccc(O)c3)c(-c3cccc(O)c3)nc2n1` [TG100-115], the Kd in assay [3] was > 30 µM (inactive).

For `O=C(Nc1cccc(Cl)c1)Nc1ncc(CCNc2ncnc3ccsc23)s1` [SNS-314], the Kd in assay [1], in assay [2] and in assay [3] was > 30 µM (inactive) each time.

Consider `CCc1cnn2c(NCc3ccc[n+]([O-])c3)cc(N3CCCC[C@H]3CCO)nc12` [DINACICLIB], for which the Kd in assay [1], in assay [2] and in assay [3] was > 30 µM (inactive) each time.

Take `COc1cc2nccc(Oc3ccc(NC(=O)NC4CC4)c(Cl)c3)c2cc1C(N)=O` [LENVATINIB]: the Kd was > 30 µM (inactive) in assay [2] and 1.78 µM (active) in assay [4].

Regarding `CNC(=O)c1ccc(C)c(-n2c(C)cc(OCc3ccc(F)cc3F)c(Br)c2=O)c1` [PH-797804], the Kd in assay [1], in assay [3] and in assay [4] was > 30 µM (inactive) each time.

Regarding `COc1cc2nccc(Oc3ccc(NC(=O)Nc4cc(C)on4)c(Cl)c3)c2cc1OC` [TIVOZANIB], the Kd in assay [1], in assay [2] and in assay [3] was > 30 µM (inactive) in each case.

Take `Cc1nc(N)sc1-c1ccnc(Nc2ccc(N3CCOCC3)cc2)n1` [CYC-116]: the Kd is > 30 µM (inactive) in assay [1], > 30 µM (inactive) in assay [2] and 0.196 µM (active) in assay [3].
